Holding throughout (type): in vivo, mouse
One test deals with factor VIII (FVIII). Nature of the test: Factor VIII production in plasma and liver of Hemophilia A mice (ELISA, Western blot, mRNA) (Example 6). The source says: (§1) 8-16-week-old male C57/BL6 mice, 8-16-week-old female and male B6129SF2/J mice (donor for isolating LSECs) and 8-16-week-old female and male Hemophilia mice (F^8tm1Kaz) mice were used in this study. Mice were housed in groups of up to 5 in micro-isolator cages on stainless steel racks (Allentown, Inc., Allentown, N.J.) with a total floor space of 500 cm^2. The cages utilized an external water bottle and a dual feeder rack (Fisher Scientific, Hampton, N.H.). These cages were stored in the storage rack which provided temperature, humidity, and ventilation control to each individual cage (Allentown, Inc.). Bed-o'Cobs ⅛″ (Fisher Scientific) were used as bedding material in each cage.
(§2) The methods were identical to Experiment 5 as described above; including the preparation of test articles (solutions of RWJ-800088 and AdHGF), isolation and transplant of LSECs, and Hepatic irradiation.
(§3) The livers of mice were irradiated at 50 Gy by using an X-ray irradiator (SARRP). At 24 hours post-irradiation, the LSECs (1×10^6 cells/mouse) were injected to the mouse through tail vein. […]
(§4) A tail bleeding test was performed in which the extent of bleeding and time to clotting over the course of 30 minutes was evaluated. FVIII protein levels were evaluated by Western blot and mRNA profiling in the blood and liver to evaluate the extent to which there was engraftment of functioning LSECs that produce FVIII. […]
Background: An ELISA detects its analyte on a solid surface through an enzyme-linked reagent.

In another test the test system is Hemophilia A mice. In words: Drabkin's tail bleeding assay (Example 6).
Excerpt: as §1, §2, §3, §4

The next test has as its system DPPIV−/− knockout mice. Nature of the test: LSEC engraftment/repopulation of irradiated liver by DPPIV staining (Examples 2 and 3). The procedure: 8-12-week-old male and female Di-peptyl peptidase IV (DPPIV) −/− knockout mice and 8-12-week-old male and female C57Bl6 mice were used in this study. Animals were weighed in the beginning of the experiment and before tissue collection. All animals were housed in the Institute for Animal Studies at Albert Einstein College of medicine and fed regular rodent chow. All experiments were performed to according to protocols approved by Institutional Animal Care and Use Committee at Albert Einstein College of Medicine. Animals were made cirrhotic using CCl4 administration (intraperitoneal [IP] injections twice a week for at least 11 weeks).
Image-guided external beam irradiation was performed using a small animal radiation research platform (SARRP, Xstrahl Inc., Suwanee, Ga.). Mice were given gastrografin contrast through gavage to improve visualization of the gastrointestinal (GI) tract. After approximately 2 minutes, mice were positioned on a tubular couch and anesthetized with ˜2% Isofluorane (Isothesia, USP) in 2 L/min pure oxygen. A cone-beam computed tomography (CBCT) scan was acquired and a treatment plan irradiating the median lobe and right lobe was generated using the MuriPlan software. […] Within the targeted lobes, the position of the isocenter was chosen to minimize irradiation of the GI tract, spine, and heart (the maximum dose to these organs was kept below 10 Gy). Targets were irradiated with 50 Gy X-rays at 220 kVp energy and 13 mA tube current (dose rate of 2.4-2.5 Gy/min) using a 1 mm copper filter for beam hardening.
TPOm was diluted in sterile PBS to a 10 mg/ml stock. The stock was stored at −20° C. and allowed to come to room temperature prior to administration. TPOm was administered as a single dose (300 μg/kg) via subcutaneous injection 10 minutes after the transplant procedure.
DPPIV was selected as a marker for engraftment of exogenous LSECs in the DPPIV (−/−) animals. […] Slide imaging was done using a Perkin Elmer P250 High Capacity Slide Scanner.
LSECs were isolated from the single-cell suspension using CD146 microbeads (Miltenyi Biotec GmbH #130-092-007).
Following isolation of LSECs, 500×10^5 LSECs are transplanted via intrasplenic injection into healthy adult mice anesthetized with Isoflurane (Isothesia, USP) 24 hrs post HIR. Buprenorphine is given post-op as an analgesic.
To test the efficacy of TPOm as an agent that can cause LSEC engraftment, DPPIV−/− knockout mice received 50GY hepatic irradiation (HIR) to the median and right lobes of the liver using external-beam CT-guided x-ray irradiation, and LSECs that express DPPIV (FIG. 2A).
The methods were identical to those described above with the exception that the LSEC transplant was administered 4-5 days post irradiation and the TPOm or Romiplostim were administered approximately 10 minutes post LSEC transplant.

For the substance “methoxypolyethyleneglycol20000-propionyl-L-Isoleucyl-L-Glutamyl-Glycyl-L-Prolyl-L-Threonyl-L-Leucyl-L-Arginyl-L-Glutaminyl-L-2-Naphthylalanyl-L-Leucyl-L-Alanyl-L-Alanyl-L-Arginyl-Sarcosyl-Ne-(methoxypolyethyleneglycol20000-propionyl-L-Isoleucyl-L-Glutamyl-Glycyl-L-Prolyl-L-Threonyl-L-Leucyl-L-Arginyl-L-Glutaminyl-L-2-Naphthyl alanyl-L-Leucyl-L-Alanyl-L-Alanyl-L-Arginyl-Sarcosyl-)-Lysinamide [RWJ-800088]”, in the test on factor VIII (FVIII) (HIR+LSECs+RWJ-800088 treated hemophilia mice), the “levels of Factor VIII mRNA and activated protein in plasma and liver” value is recorded as “increased levels”. The “expression of factor VIII (FVIII) by ELISA in plasma and liver compared to non-treated Haemophilia A mice” value with factor VIII (FVIII) (HIR+LSECs+drug) was “prolonged expression”. The “haemoglobin loss (haemoglobin concentration in the collection tube) compared to FVIII deficient model” value in the test with Hemophilia A mice (HIR 50 Gy + LSECs + drug) is given as “significant decrease”. Besides, the “bleeding and clotting time in functional bleeding assay” value with Hemophilia A mice (HIR + LSEC transplantation + RWJ-800088) was “reduced bleeding and clotting time similar to non-Hemophilia A controls”. For the same substance, the “repopulation of irradiated liver by transplanted DPPIV(+/+) LSECs (DPPIV staining)” value with DPPIV−/− knockout mice (50GY HIR + LSEC transplant 24 hrs post HIR, growth stimulus given after transplant, listed as TPOm) is on record as “massive LSEC repopulation”. Also, the “animals with some level of hepatic repopulation” value in the test on DPPIV−/− knockout mice (LSEC+TPOm+HIR) is reported as 6/7. Besides, in the test with DPPIV−/− knockout mice (targeted liver irradiation (50 Gy)), the “Engraftment when LSEC transplant is administered 24 hours post irradiation” value is on record as “Yes”. Also, in the test on DPPIV−/− knockout mice (targeted liver irradiation (50 Gy), drug approximately 10 minutes post LSEC transplant), the “Engraftment when LSEC transplant is administered 4-5 days post irradiation” value is “Yes”.

The record behind these values is patent US20200237871A1, “METHODS FOR MITIGATING LIVER INJURY AND PROMOTING LIVER HYPERTROPHY, REGENERATION AND CELL ENGRAFTMENT IN CONJUNCTION WITH RADIATION AND/OR RADIOMIMETIC TREATMENTS” (Janssen Pharmaceutica NV, priority 2019, published 2020).
